We go through 26 compounds from patent publication US20240124504A1, “AROMATIC HETEROCYCLIC COMPOUND, AND PHARMACEUTICAL COMPOSITION AND APPLICATION THEREOF” (GT APEIRON THERAPEUTICS LIMITED, priority 2020, published 2024).

Bounds are passed on as bounds.

One may read the IC50 as the concentration that gives 50% inhibition.

Assay [1] deals with T1, CDK12 (aa686-1082)/cyclinK complex (Homo sapiens, UniProt Q9NYV4).
T1 construct: A CDK12 (aa686-1082)/cyclinK complex (50 nM)
Nature of the assay: In-vitro enzymatic inhibitory activity testing, CDK12 inhibition assay (Caliper EZ Reader II). The format is biochemical. Conditions: CDK12/cyclinK 50 nM, 180 min at 27° C.; read-out: CDK12 IC50. The essentials: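 CDK12 (aa686-1082)/cyclinK complex at 50 nM was pre-incubated with compound for 10 min, then reacted 180 min at 27° C with ATP and 2 μM 5-FAM-CDK9tide in pH 6.5 MES buffer with 10 mM MgCl2. Reactions were EDTA-quenched and product resolved electrophoretically; IC50 from nonlinear curve fit.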

Assay [2] has as its target CDK2/cyclinE1 complex (Homo sapiens, UniProt P24941). The assay can be described thus: In-vitro enzymatic inhibitory activity testing, CDK2 inhibition assay (Caliper EZ Reader II). The format is biochemical. Conditions: CDK2/cyclinE1 0.5 nM, 180 min at 27° C. An outline of the steps: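 CDK2/cyclinE1 (0.5 nM) phosphorylated 5-FAM-CDK7tide (2 μM) in MES buffer pH 6.5 with MgCl2, Tween 20 and BSA. Substrate and product were separated electrophoretically on a Caliper EZ Reader II. IC50 values came from nonlinear dose-response fits.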

The subject of assay [3] is ovarian cancer A2780. The assay can be described thus: Cell biological activity detection (CyQuant, 72 hours), A2780. The format is cell-based, human. Conditions: A2780 cells, incubation for 72 hours. The essentials:
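IC50 derived from CyQuant Direct nuclear staining (488 nm excitation) after 72 h compound exposure at 37 °C, 5% CO2. Compounds tested in 9 concentrations from 10 μM, 1:4 steps, 0.2% DMSO, on A2780 or HCC70 cells plated overnight at 2000/well in RPMI 1640 + 10% FBS.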

T1 sequence (Q9NYV4 686-1082, species assumed): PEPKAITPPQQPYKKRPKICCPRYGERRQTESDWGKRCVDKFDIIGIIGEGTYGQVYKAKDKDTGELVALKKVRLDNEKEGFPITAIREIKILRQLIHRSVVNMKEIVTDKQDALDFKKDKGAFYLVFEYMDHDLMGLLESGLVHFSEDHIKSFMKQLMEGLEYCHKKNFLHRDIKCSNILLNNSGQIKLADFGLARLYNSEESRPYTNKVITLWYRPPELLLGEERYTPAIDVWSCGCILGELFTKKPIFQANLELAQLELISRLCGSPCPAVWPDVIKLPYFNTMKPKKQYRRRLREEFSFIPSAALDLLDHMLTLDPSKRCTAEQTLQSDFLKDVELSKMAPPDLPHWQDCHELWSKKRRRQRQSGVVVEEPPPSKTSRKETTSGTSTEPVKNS
T1 sequence (O75909 whole entry partner, species assumed, the tested form may be a part): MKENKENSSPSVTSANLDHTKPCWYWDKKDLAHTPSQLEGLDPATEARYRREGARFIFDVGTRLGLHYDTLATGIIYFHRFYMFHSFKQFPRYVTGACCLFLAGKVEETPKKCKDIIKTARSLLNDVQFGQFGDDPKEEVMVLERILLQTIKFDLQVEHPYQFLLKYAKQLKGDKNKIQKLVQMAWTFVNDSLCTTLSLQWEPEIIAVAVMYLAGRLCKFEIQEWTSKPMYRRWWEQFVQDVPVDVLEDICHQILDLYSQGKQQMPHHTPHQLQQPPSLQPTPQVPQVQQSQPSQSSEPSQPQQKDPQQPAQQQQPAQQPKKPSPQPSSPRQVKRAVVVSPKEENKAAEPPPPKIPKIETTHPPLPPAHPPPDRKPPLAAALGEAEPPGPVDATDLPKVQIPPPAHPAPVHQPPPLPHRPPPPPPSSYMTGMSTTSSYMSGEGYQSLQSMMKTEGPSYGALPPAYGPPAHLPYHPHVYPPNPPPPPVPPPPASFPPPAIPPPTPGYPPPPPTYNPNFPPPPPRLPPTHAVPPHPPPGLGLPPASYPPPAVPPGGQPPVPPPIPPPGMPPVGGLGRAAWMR

Take `CC1(C)COCC(Nc2ncc(C(F)(F)F)c(-c3c[nH]c4c(P(C)(C)=O)cccc34)n2)CN1` (single isomer, unassigned) [Compound 91, (3-(2-((3,3-dimethyl-1,4-oxazepan-6-yl)amino)-5-(trifluoromethyl)pyrimidin-4-yl)-1H-indole-7-yl)dimethylphosphine oxide]: the IC50 was 5 to 50 µM in assay [1]; 5 to 50 µM in assay [2]; below 0.02 µM in assay [3] (Homo sapiens, A2780, 72 h).
For `CP(C)(=O)c1cccc2c(-c3nc(NC4(CO)CC(F)C4)ncc3C(F)(F)F)c[nH]c12` (stereo not drawn) [Compound 105, (3-(2-((3-fluoro-1-(hydroxymethyl)cyclobutyl)amino)-5-(trifluoromethyl)pyrimidin-4-yl)-1H-indole-7-yl)dimethylphosphine oxide], the IC50 is above 50 µM in assay [1]; 5 to 50 µM in assay [2]; 0.02 to 0.2 µM in assay [3] (Homo sapiens, A2780, 72 h).
In the same order, the values of `C[C@@H](CO)Nc1ncc(C(F)(F)F)c(-c2c[nH]c3c(P(C)(C)=O)c(C#N)ccc23)n1` [Compound 79, (S)-7-(dimethylphosphoryl)-3-(2-((1-hydroxy-propan-2-yl)amino)-5-(trifluoromethyl)pyrimidin-4-yl)-1H-indole-6-carbonitrile] are above 50 µM, 0.2 to 5 µM and below 0.02 µM.
In the same order, the values of `CP(C)(=O)c1cccc2c(-c3nc(NC4(CO)COC4)ncc3C(F)(F)F)c[nH]c12` [Compound 114, (3-(2-((3-(hydroxymethyl)oxetan-3-yl)amino)-5-(trifluoromethyl)pyrimidin-4-yl)-1H-indole-7-yl)dimethylphosphine oxide] are above 50 µM, 0.2 to 5 µM and below 0.02 µM.
In the case of `C[C@@H](CO)Nc1ncc(Cl)c(-c2c[nH]c3c(P(C)(C)=O)cccc23)n1` [Compound 103, (S)-(3-(5-chloro-2-((1-hydroxypropan-2-yl)amino)pyrimidin-4-yl)-1H-indole-7-yl)dimethylphosphine oxide], the IC50 in assay [1] is above 50 µM; in assay [2], 0.2 to 5 µM; in assay [3] (Homo sapiens, A2780, 72 h), 0.02 to 0.2 µM.
As for `C[C@@H](CO)Nc1ncc(C#N)c(-c2c[nH]c3c(P(C)(C)=O)cccc23)n1` [Compound 179, (S)-4-(7-(dimethylphosphoryl)-1H-indole-3-yl)-2-((1-hydroxypropan-2-yl)amino)pyrimidine-5-carbonitrile], the 50% inhibitory concentration (IC50) was 5 to 50 µM in assay [1]; 0.2 to 5 µM in assay [2]; 0.02 to 0.2 µM in assay [3] (Homo sapiens, A2780, 72 h).
As to `CP(C)(=O)c1cccc2c(-c3nc(NC4(CO)CCOC4)ncc3C(F)(F)F)c[nH]c12` (single isomer, unassigned) [Compound 119], the results for the half-inhibitory concentration (IC50) in assay [1], in assay [2] and in assay [3] were above 50 µM, 5 to 50 µM and 0.02 to 0.2 µM, respectively.
On to `CP(C)(=O)c1cccc2c(-c3nc(N[C@H]4CC[C@H](O)C4)ncc3C(F)(F)F)c[nH]c12` [Compound 83], for which the IC50 in assay [1] was 5 to 50 µM; in assay [2] it was 0.2 to 5 µM; in assay [3] (Homo sapiens, A2780, 72 h) it was below 0.02 µM.
For `CP(C)(=O)c1cccc2c(-c3nc(NC4(CO)CCOC4)ncc3C(F)(F)F)c[nH]c12` (single isomer, unassigned) [Compound 118], in that order: above 50 µM, 5 to 50 µM and below 0.02 µM.
For the compound `CP(C)(=O)c1cccc2c(-c3nc(NCCO)ncc3C(F)(F)F)c[nH]c12` [Compound 97, (3-(2-((2-hydroxyethyl)amino)-5-(trifluoromethyl)pyrimidin-4-yl)-1H-indole-7-yl)dimethylphosphine oxide], the IC50 in assay [1] was above 50 µM; in assay [2], 0.2 to 5 µM; in assay [3] (Homo sapiens, A2780, 72 h), below 0.02 µM.
Consider `CP(C)(=O)c1cccc2c(-c3nc(NC4(CO)CC(F)(F)C4)ncc3C(F)(F)F)c[nH]c12` [Compound 96, (3-(2-((3,3-difluoro-1-(hydroxymethyl)cyclobutyl)amino)-5-(trifluoromethyl)pyrimidin-4-yl)-1H-indole-7-yl)dimethylphosphine oxide], for which the IC50 is above 50 µM in assay [1]; 5 to 50 µM in assay [2]; below 0.02 µM in assay [3] (Homo sapiens, A2780, 72 h).
In the same order, the values of `CP(C)(=O)c1cccc2c(-c3nc(NCC(F)(F)CO)ncc3C(F)(F)F)c[nH]c12` [Compound 102, (3-(2-((2,2-difluoro-3-hydroxypropyl)amino)-5-(trifluoromethyl)pyrimidin-4-yl)-1H-indole-7-yl)dimethylphosphine oxide] are above 50 µM, 5 to 50 µM and below 0.02 µM.
`CP(C)(=O)c1cccc2c(-c3nc(NCC4CC4CO)ncc3C(F)(F)F)c[nH]c12` (single isomer, unassigned) [Compound 143]: the IC50 in assay [1] is above 50 µM; in assay [2], 5 to 50 µM; in assay [3] (Homo sapiens, A2780, 72 h) it was 0.02 to 0.2 µM.
For `CC[C@@H](CO)Nc1ncc(C(F)(F)F)c(-c2c[nH]c3c(P(C)(C)=O)cccc23)n1` [Compound 88, (S)-(3-(2-((1-hydroxybutan-2-yl)amino)-5-(trifluoromethyl)pyrimidin-4-yl)-1H-indole-7-yl)dimethylphosphine oxide], in that order: above 50 µM, 0.2 to 5 µM and below 0.02 µM.
For `C[C@@H](CO)Nc1ncc(C(F)(F)F)c(-c2c[nH]c3c(P(C)(C)=O)cc(F)cc23)n1` [Compound 158], in that order: above 50 µM, 0.2 to 5 µM and below 0.02 µM.
In the same order, the values of `CP(C)(=O)c1cccc2c(-c3nc(N[C@H]4CCC[C@@H]4O)ncc3C(F)(F)F)c[nH]c12` [Compound 155, (3-(2-(((1S,2S)-2-hydroxycyclopentyl)amino)-5-(trifluoromethyl)pyrimidin-4-yl)-1hydro-indole-7-yl)dimethylphosphine oxide] are 5 to 50 µM, 0.2 to 5 µM and below 0.02 µM.
Regarding `CP(C)(=O)c1cccc2c(-c3nc(NC[C@H](F)CO)ncc3C(F)(F)F)c[nH]c12` [Compound 86, (S)-(3-(2-((2-fluoro-3-hydroxypropyl)amino)-5-(trifluoromethyl)pyrimidin-4-yl)-1H-indole-7-yl)dimethylphosphine oxide], the IC50 was above 50 µM in assay [1]; 0.2 to 5 µM in assay [2]; below 0.02 µM in assay [3] (Homo sapiens, A2780, 72 h).
As to `CC(O)[C@H](C)Nc1ncc(C(F)(F)F)c(-c2c[nH]c3c(P(C)(C)=O)cccc23)n1` (single isomer, unassigned) [Compound 130], the results for the IC50 in assay [1], in assay [2] and in assay [3] were above 50 µM, 5 to 50 µM and 0.02 to 0.2 µM, respectively.
Turning to `CC(CO)CNc1ncc(C(F)(F)F)c(-c2c[nH]c3c(P(C)(C)=O)cccc23)n1` (single isomer, unassigned) [Compound 149], the IC50 is above 50 µM in assay [1]; 0.2 to 5 µM in assay [2]; 0.02 to 0.2 µM in assay [3] (Homo sapiens, A2780, 72 h).
Regarding `CC(CO)CNc1ncc(C(F)(F)F)c(-c2c[nH]c3c(P(C)(C)=O)cccc23)n1` (single isomer, unassigned) [Compound 150], the IC50 in assay [1] was above 50 µM; in assay [2] it was 0.2 to 5 µM; in assay [3], 0.02 to 0.2 µM.
Turning to `C[C@@H](CO)Nc1ncc(C(F)(F)F)c(-c2c[nH]c3c(P(C)(C)=O)cccc23)n1` [Compound 82, (S)-(3-(2-((1-hydroxypropyl-2-yl)amino)-5-(trifluoromethyl)pyrimidin-4-yl)-1H-indole-7-yl)dimethylphosphine oxide], the IC50 is 5 to 50 µM in assay [1]; 0.2 to 5 µM in assay [2]; below 0.02 µM in assay [3] (Homo sapiens, A2780, 72 h).
Regarding `C[C@H](CO)Nc1ncc(C(F)(F)F)c(-c2c[nH]c3c(P(C)(C)=O)cccc23)n1` [Compound 93, (R)-(3-(2-((1-hydroxypropyl-2-yl)amino)-5-(trifluoromethyl)pyrimidin-4-yl)-1H-indole-7-yl)dimethylphosphine oxide], the IC50 was 5 to 50 µM in assay [1]; 0.2 to 5 µM in assay [2]; below 0.02 µM in assay [3] (Homo sapiens, A2780, 72 h).
In the same order, the values of `CP(C)(=O)c1cccc2c(-c3nc(N[C@H]4COC[C@@H]4O)ncc3C(F)(F)F)c[nH]c12` [Compound 87] are above 50 µM, 0.2 to 5 µM and below 0.02 µM.
In the case of `CP(C)(=O)c1cccc2c(-c3nc(NCCCO)ncc3C(F)(F)F)c[nH]c12` [Compound 89, (3-(2-((3-hydroxypropyl)amino)-5-(trifluoromethyl)pyrimidin-4-yl)-1H-indole-7-yl)dimethylphosphine oxide], the IC50 in assay [1] was above 50 µM; in assay [2] it was 0.2 to 5 µM; in assay [3] (Homo sapiens, A2780, 72 h) it was below 0.02 µM.
Regarding `CP(C)(=O)c1cccc2c(-c3nc(NC4(CO)CC4)ncc3C(F)(F)F)c[nH]c12` [Compound 94, (3-(2-((1-(hydroxymethyl)cyclopropyl)amino)-5-(trifluoromethyl)pyrimidin-4-yl)-1H-indole-7-yl)dimethylphosphine oxide], the IC50 in assay [1] was above 50 µM; in assay [2] it was 5 to 50 µM; in assay [3] (Homo sapiens, A2780, 72 h), below 0.02 µM.
Regarding `C[C@@H](CO)Nc1ncc(C(F)(F)F)c(-c2c[nH]c3c(P(C)(C)=O)c(F)ccc23)n1` [Compound 195], the IC50 in assay [1] is 5 to 50 µM; in assay [2], 0.2 to 5 µM; in assay [3] (Homo sapiens, A2780, 72 h), below 0.02 µM.
